{"source": "patent US11814366B2", "about": "“Antiviral compounds and use thereof” (UNIVERSITA DEGLI STUDI DI SIENA, priority 2018, dated 2023)", "key": {"[1]": {"experiment": "Cell viability (MTS) assay, Huh-7 cells", "format": "cell-based", "conditions": "human, conditions of the DENV-2 assay (Table 6)", "method": "(§1) Cell viability was measured using the MITS [3-(4,5-dimethylthiazol-2-yl)-5-(3 carboxy methoxy phenyl)-2-(4-sulfophenyl)-2H-tetrazolium] assay. Cell cultures were seeded in 96-well plates and were incubated with different concentrations of compounds of the invention in triplicate under the same experimental conditions described for the antiviral assays. Cell viability was determined using the CellTiter 96 Proliferation Assay Kit (Promega, Madison, WI, USA) according to the manufacturer's instructions. Absorbances were measured using a Microplate Reader (Model 680, BIORAD) at 490 nm. The effect on cell viability at different concentrations of the compound was expressed as a percentage, by comparing absorbances of treated cells with those of cells incubated with culture medium and equal volumes of vehicle. The 50% cytotoxic concentrations (CC50) and 95% confidence intervals (CIs) were determined using Prism software (Graph-Pad Software, San Diego, CA)."}, "HSV-2 [2]": {"system": "HSV-2", "experiment": "During infection assay, HSV-2 on Vero cells without preincubation", "format": "cell-based, Herpes 2 virus (HSV-2)", "conditions": "Human alphaherpesvirus 2; HSV-2, Vero cells, no preincubation of compound and virus; read-out: EC50 in during infection (DI) assay", "method": "During infection cells were subjected to the same experiment described above for the evaluation of HSV inhibition without the preincubation between compounds and virus."}, "[3]": {"experiment": "Lipoperoxidation test (TBA assay)", "procedure": "To evaluate the lipid oxidation capability of 15b, a lipoperoxidation test was carried out.\nThe effect of 15b was evaluated toward the oxidation of linoleic acid, incorporated in DPPC liposomes, using TBA assay. The assay is based on the reactivity of malondialdehyde (MDA), a colorless end-product of degradation, with 2-thiobarbituric acid (TBA) to produce a pink adduct (TBA-MDA-TBA) that absorbs at 535 nm. […] MDA was detected spectrophotometrically according to methods described in literature (Boon-Huat Bay, Yuan-Kun Lee, Benny Kwong-Huat Tan, Eng-Ang Ling, Lipid peroxidative stress and antioxidative enzymes in brains of milk-supplemented rats, Neuroscience Letters 277 (1999) 127-130).\n15b was incubated at 37° C. for 2 h with a 0.5% linoleic acid containing liposome aqueous dispersion (Cagno, V.; Tintori, C.; Civra, A.; Cavalli, R.; Tiberi, M.; Botta, L.; Brai, A.; Poli, G.; Tapparel, C.; Lembo, D.; et al. Novel Broad Spectrum Virucidal Molecules against Enveloped Viruses. 2018). […] The organic supernatant was evaluated by spectrophotometry.\nThe calibration curve of TBA-MDA-TBA complex was obtained using a MDA precursor 1,1,3,3-tetraethoxypropane. […] The solutions were subjected to TBA assay and analyzed at spectrophotometer. […]"}, "HSV-2 Acy R": {"system": "HSV-2 Acy R", "experiment": "microbe, parasite or virus in culture", "format": "cell-based, HSV-2 acyclovir resistant", "conditions": "Human alphaherpesvirus 2, Vero"}, "HSV-2 [4]": {"system": "HSV-2", "experiment": "Post treatment assay, HSV-2 infected Vero cells", "format": "cell-based, Herpes 2 virus (HSV-2)", "conditions": "Human alphaherpesvirus 2, Vero, read-out: antiviral activity value when added post-infection", "method": "Supernatants and cells were harvested and cell free virus infectivity titers were determined in duplicate by plaque assay in Vero cell monolayers. Percent inhibition was determined by comparing the titer measured in the presence of the compounds to that measured in untreated wells."}, "ZIKAV": {"system": "ZIKAV", "experiment": "ZIKA virus plaque reduction assay on Vero cells", "format": "cell-based, Zika virus (PRVABC59)"}, "HSV-2 [5]": {"system": "HSV-2", "experiment": "HSV-2 plaque reduction assay on Vero cells", "format": "cell-based, Herpes 2 virus (HSV-2)"}, "HSV-2 [6]": {"system": "HSV-2", "experiment": "Entry of virus into cell (ELISA, immunofluorescence)", "format": "cell-based, Herpes 2 virus (HSV-2)", "conditions": "10 μM, HSV-2, Vero cells", "method": "Cells were plated in 96 well plates. The following day 10 μM of compound 15b in DMSO and HSV-2 (MOI 10 pfu/cell) were incubated for 1 h at 37° C. and subsequently added on cells for 1 hour at 4° C. Cells were then washed and shifted at 37° C. for 1 h and 30 minutes. Cells were then fixed with 4% paraformaldehyde, air dried and permeabilized with PBS-TRITON (0.5%) and then the same protocol described for binding was followed.\nVero cells were pre-plated on coverslips and the following day the binding or entry protocol described above was applied. Cells were then fixed with 4% paraformaldehyde, air dried and for entry protocol permeabilized with PBS-TRITON. Blocking was performed with PBS-BSA1% for 1 h at room temperature and subsequently HSV-2 polyclonal antibody (B011402-2 Dako) (1:250) was added on cells, after 1 hour at 37° C. the inoculum was removed and coverslips were washed with PBS-TWEEN for 3 times. Rhodamine conjugated anti-rabbit IgG (Santa Cruz) was then added on cells for 1 h at 37° C. following 3 washes coverslips were mounted on microscope glasses and observed with Zeiss LSM510 fluorescence microscope (Zeiss, Oberkochen, Germany) and images were acquired (FIG. 3A, 3B)."}, "[7]": {"experiment": "Cell viability (MTS) assay, Hep-2 cells", "format": "cell-based", "conditions": "human, conditions of the RSV assay", "method": "as §1"}, "H1N1": {"system": "H1N1", "experiment": "H1N1 inhibition assay on MDCK cells", "format": "cell-based, Influenza virus H1N1", "method": "MDCK cells were pre-plated in 96-well plates. The following day, concentrations of compounds ranging from 50 μM to 0.0001 μM in DMSO were mixed with H1N1 (MOI 0.05 pfu/cell) and incubated for 1 hour at 37° C. The mixtures were subsequently added to the cells for 1 h at 37° C., after a washout, cells were overlaid with MEM for 16 h at 37° C. Cells were then fixed and subjected to specific immunostaining using a Flu A monoclonal antibody (Merck 5001) in order to visualize infected cells. EC50 were calculated by comparing numbers of infected cells in treated and untreated wells. The effective concentration producing 50% reduction in plaque formation (EC50) was determined using Prism software. The selectivity index (SI) was calculated by dividing the CC50 by the EC50 value."}, "[8]": {"experiment": "Cell viability (MTS) assay, MA104 cells", "format": "cell-based", "conditions": "African green monkey, conditions of the HRoV assay", "method": "as §1"}, "[9]": {"experiment": "Cell viability (MTS) assay, HELF cells", "format": "cell-based", "conditions": "human, conditions of the HCMV assay", "method": "as §1"}, "Cytotoxicity, XTT test": {"experiment": "Cytotoxicity, XTT test", "conditions": "human"}, "in vitro": {"experiment": "in vitro", "conditions": "dog"}, "DENV-2": {"system": "DENV-2", "experiment": "DENV plaque reduction assay on Huh-7 cells", "format": "cell-based, Dengue virus", "method": "The effect of compounds on DENV infection was evaluated by plaque reduction assay. Huh-7 cells were pre-plated 24 h in advance in 24-well plates at a density of 10^5 cells. Concentrations of compounds ranging from 50 μM to 0.0001 μM in DMSO were mixed with DENV-2 (MOI 0.01 pfu/cell) and incubated for 1 hour at 37° C. The mixtures were subsequently added to the cells, which were then incubated at 37° C. for 2 h. The virus inoculum was then removed and the cells washed and overlaid with a medium containing 1.2% methylcellulose (Sigma). After further incubation at 37° C. for 72 h cells were fixed and stained with 0.1% crystal violet in 20% ethanol and viral plaques counted. The effective concentration producing 50% reduction in plaque formation (EC50) were determined using Prism software by comparing drug-treated wells with wells treated with medium and DMSO. The selectivity index (SI) was calculated by dividing the CC50 by the EC50 value."}, "VSV": {"system": "VSV", "experiment": "microbe, parasite or virus in culture", "format": "cell-based, Vesicular Stomatitis Virus (VSV)", "conditions": "Vesicular stomatitis virus, Vero"}}, "note": "pEC50: −log10 of the molar value. “Also recorded” adds a separate entry of the source."}
{"smiles": "O=C1NC(=S)N(CCc2ccccc2)C(=O)/C1=C\\c1ccc(-c2ccc(C(=O)O)c(O)c2)[nH]1", "note": "[Compound 15b, (Z)-4-(5-((4,6-dioxo-1-phenethyl-2-thioxotetrahydropyrimidin-5(2H)-ylidene)methyl)-1H-pyrrol-2-yl)-2-hydroxybenzoic Acid]", "values": [{"measurement": "CC50", "setting": "[1]", "value": 7900, "unit": "nM"}, {"measurement": "pEC50", "setting": "HSV-2 [2]", "value": 5.10}, {"measurement": "lipid oxidation capability", "setting": "[3]; 37° C. for 2 h, 0.5% linoleic acid containing liposomes, MDA readout", "value": "able to oxidize polyunsaturated fatty acids"}, {"measurement": "oxidation of linoleic acid with tocopherol added", "setting": "[3]; with 0.05% w/w (±)-α-tocopherol as antioxidant", "value": "reduced the oxidation of linoleic acid"}, {"measurement": "pEC50", "setting": "HSV-2 Acy R", "value": 7.08}, {"measurement": "EC90", "setting": "HSV-2 Acy R", "value": 420, "unit": "nM"}, {"measurement": "pEC50", "setting": "HSV-2 [4]", "value": 6.11}, {"measurement": "SI selectivity index", "setting": "ZIKAV; ZIKAV, CC50 divided by EC50", "value": ">2563"}, {"measurement": "pEC50", "setting": "ZIKAV; Zika virus, Vero, ZIKAV infected cells", "value": 7.36}, {"measurement": "SI selectivity index", "setting": "HSV-2 [5]; HSV-2, CC50 divided by EC50", "value": ">3452"}, {"measurement": "EC90", "setting": "HSV-2 [5]; Human alphaherpesvirus 2, Vero, HSV-2 infected cells, 90% effective concentration", "value": 1190, "unit": "nM"}, {"measurement": "pEC50", "setting": "HSV-2 [5]; Human alphaherpesvirus 2, Vero, HSV-2 infected cells, compound mixed with virus 1 hour at 37° C.", "value": 7.06}, {"measurement": "percentage of internalized virus", "setting": "HSV-2 [6]", "value": "decreased; also recorded: lower"}, {"measurement": "CC50", "setting": "[7]", "value": 241000, "unit": "nM"}, {"measurement": "SI selectivity index", "setting": "H1N1; H1N1, CC50 divided by EC50", "value": ">77"}, {"measurement": "pEC50", "setting": "H1N1; Influenza A virus, H1N1, MDCK", "value": 5.91}, {"measurement": "EC90", "setting": "H1N1; Influenza A virus, H1N1, MDCK", "value": 3880, "unit": "nM"}, {"measurement": "CC50", "setting": "[8]", "value": "> 300000", "unit": "nM"}, {"measurement": "CC50", "setting": "[9]", "value": 36300, "unit": "nM"}, {"measurement": "CC50", "setting": "Cytotoxicity, XTT test", "value": "> 20000", "unit": "nM"}, {"measurement": "CC50", "setting": "in vitro", "value": "> 300000", "unit": "nM"}, {"measurement": "SI selectivity index", "setting": "DENV-2; DENV-2, CC50 divided by EC50", "value": 5.6}, {"measurement": "pEC50", "setting": "DENV-2; Dengue virus, DENV2, Huh-7, DENV-2 infected cells", "value": 5.85}, {"measurement": "pEC50", "setting": "VSV", "value": 6.84}, {"measurement": "EC90", "setting": "VSV", "value": 2170, "unit": "nM"}]}
